Key:
Type in all cases: cell-based
[1] = target: T1, EGFR T790M/L858R/C797S (NCI-H1975+CS cells) (Homo sapiens, UniProt P00533, C797S/L858R/T790M); assay: EGFR (L858R) degradation analysis, Total EGFR (L858R) HTRF, NCI-H1975+CS cells; conditions: 6 hours, read-out: H1975 C797S clone EGFR DC50
T1 construct: NCI-H1975+CS (harboring EGFR heterozygous T/790M/L858R/C797S mutations) was generated using CRISPR technology; host or cells: NCI-H1975+CS (CRISPR-edited NCI-H1975)
Source text: (§1) NCI-H1975 (harboring EGFR heterozygous T790M/L858R mutations) and NCI-H3255 (harboring EGFR heterozygous L858R mutation) were purchased from ATCC and NCI, respectively. NCI-H1975+CS (harboring EGFR heterozygous T/790M/L858R/C797S mutations) was generated using CRISPR technology to introduce the additional C797S mutation by Horizon Discovery. RPMI 1640 no-phenol red medium and fetal bovine serum (FBS) were purchased from Gibco (Grand Island, NY, USA). Cell culture flasks and 384-well microplates were acquired from VWR (Radnor, PA, USA). Total EGFR (L858R) HTRF assay kits were purchased from Cisbio (Bedford, MA, USA).
(§2) Degradation of EGFR protein containing L858R mutation was determined based on quantification of FRET signal using Total EGFR (L858R) HTRF assay kit. Test compounds were added to the 384-well plate from a top concentration of 10 μM with 11 points, half log titration in duplicates. NCI-H1975, NCI-H1975+CS or NCI-H3255 cells were added into 384-well plates at a cell density of 10000, 10000 or 1000 cells per well, respectively. The plates were kept at 37° C. with 5% CO2 for 6 hours. Cells treated in the absence of the test compound were the negative control. Positive control was set by wells containing all reagents but no cells. FRET signal was acquired on EnVision™ Multilabel Reader (PerkinElmer, Santa Clara, CA, USA).

[2] = target: T2, EGFR L858R (NCI-H3255 cells) (Homo sapiens, UniProt P00533, L858R); assay: EGFR (L858R) degradation analysis, Total EGFR (L858R) HTRF, NCI-H3255 cells; conditions: 6 hours
T2 construct: NCI-H3255 (harboring EGFR heterozygous L858R mutation); host or cells: NCI-H3255
T2 sequence (P00533 25-1210 L858R): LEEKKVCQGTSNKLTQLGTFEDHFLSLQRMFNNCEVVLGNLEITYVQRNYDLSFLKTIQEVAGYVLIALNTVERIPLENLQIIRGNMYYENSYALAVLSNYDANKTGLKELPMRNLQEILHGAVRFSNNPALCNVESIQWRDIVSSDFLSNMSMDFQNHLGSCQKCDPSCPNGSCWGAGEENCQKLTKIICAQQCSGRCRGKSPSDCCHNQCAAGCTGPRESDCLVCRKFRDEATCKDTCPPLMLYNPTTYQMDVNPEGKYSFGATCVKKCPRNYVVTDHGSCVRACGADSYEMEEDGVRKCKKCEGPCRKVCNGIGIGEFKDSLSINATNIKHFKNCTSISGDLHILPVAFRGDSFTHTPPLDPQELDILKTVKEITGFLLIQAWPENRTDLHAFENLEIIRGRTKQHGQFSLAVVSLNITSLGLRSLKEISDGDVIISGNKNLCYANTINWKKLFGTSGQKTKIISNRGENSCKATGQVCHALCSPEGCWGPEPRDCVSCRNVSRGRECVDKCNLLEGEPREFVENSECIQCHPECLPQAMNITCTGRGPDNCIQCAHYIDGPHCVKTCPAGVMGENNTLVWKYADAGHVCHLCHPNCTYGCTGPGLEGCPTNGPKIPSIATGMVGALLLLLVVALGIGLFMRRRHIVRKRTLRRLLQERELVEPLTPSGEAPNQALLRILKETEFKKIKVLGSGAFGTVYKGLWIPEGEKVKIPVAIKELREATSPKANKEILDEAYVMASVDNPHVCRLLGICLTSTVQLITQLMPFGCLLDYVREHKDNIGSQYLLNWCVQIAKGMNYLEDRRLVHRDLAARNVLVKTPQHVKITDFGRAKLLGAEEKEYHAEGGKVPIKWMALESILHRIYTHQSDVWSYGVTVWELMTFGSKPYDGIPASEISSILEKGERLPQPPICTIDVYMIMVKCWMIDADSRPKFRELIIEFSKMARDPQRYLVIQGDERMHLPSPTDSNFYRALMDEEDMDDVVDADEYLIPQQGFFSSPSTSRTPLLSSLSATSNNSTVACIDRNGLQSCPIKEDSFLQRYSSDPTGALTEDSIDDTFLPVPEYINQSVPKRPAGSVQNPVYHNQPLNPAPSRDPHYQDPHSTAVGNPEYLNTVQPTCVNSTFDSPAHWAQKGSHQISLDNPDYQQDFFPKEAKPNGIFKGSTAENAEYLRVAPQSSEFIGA
Source text: as §1, §2

[3] = target: T3, EGFR T790M/L858R (NCI-H1975 cells) (Homo sapiens, UniProt P00533, L858R/T790M); assay: EGFR (L858R) degradation analysis, Total EGFR (L858R) HTRF, NCI-H1975 cells; conditions: 6 hours
T3 construct: NCI-H1975 (harboring EGFR heterozygous T790M/L858R mutations); host or cells: NCI-H1975
T3 sequence (P00533 25-1210 T790M/L858R): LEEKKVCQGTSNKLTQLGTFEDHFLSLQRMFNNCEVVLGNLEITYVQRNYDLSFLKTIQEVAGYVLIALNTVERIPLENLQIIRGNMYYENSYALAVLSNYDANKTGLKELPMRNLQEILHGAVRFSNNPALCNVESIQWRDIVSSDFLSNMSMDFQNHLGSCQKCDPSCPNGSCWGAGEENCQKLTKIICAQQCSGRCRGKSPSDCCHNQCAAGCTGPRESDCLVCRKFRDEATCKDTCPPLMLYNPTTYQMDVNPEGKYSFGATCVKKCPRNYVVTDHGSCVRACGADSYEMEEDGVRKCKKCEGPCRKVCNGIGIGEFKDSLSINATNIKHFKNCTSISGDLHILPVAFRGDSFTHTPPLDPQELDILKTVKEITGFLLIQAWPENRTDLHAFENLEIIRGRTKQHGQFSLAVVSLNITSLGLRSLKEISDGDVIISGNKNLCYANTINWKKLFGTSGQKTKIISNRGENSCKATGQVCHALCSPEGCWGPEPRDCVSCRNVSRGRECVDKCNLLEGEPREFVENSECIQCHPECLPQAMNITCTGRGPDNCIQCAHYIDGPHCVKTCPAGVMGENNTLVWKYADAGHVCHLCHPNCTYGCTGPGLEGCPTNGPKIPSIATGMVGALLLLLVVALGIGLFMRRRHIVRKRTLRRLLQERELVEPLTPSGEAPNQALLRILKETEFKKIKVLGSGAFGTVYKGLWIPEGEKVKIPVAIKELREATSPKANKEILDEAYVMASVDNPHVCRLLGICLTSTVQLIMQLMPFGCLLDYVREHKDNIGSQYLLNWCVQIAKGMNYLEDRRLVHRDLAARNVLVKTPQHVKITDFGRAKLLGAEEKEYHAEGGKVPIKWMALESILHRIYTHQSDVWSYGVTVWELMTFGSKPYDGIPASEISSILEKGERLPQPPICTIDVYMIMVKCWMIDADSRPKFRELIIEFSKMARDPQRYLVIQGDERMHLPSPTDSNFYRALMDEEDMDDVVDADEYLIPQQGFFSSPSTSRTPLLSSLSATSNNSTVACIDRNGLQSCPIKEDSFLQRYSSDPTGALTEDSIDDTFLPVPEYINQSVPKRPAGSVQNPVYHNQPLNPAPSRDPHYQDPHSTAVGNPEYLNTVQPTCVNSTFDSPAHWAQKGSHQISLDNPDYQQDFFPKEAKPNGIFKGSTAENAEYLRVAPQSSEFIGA
Outline: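 Cells (10000/well NCI-H1975 and NCI-H1975+CS, 1000/well NCI-H3255) treated with 11-point half-log titrations from 10 μM top, in duplicate, for 6 hours at 37° C., 5% CO2. Total EGFR (L858R) quantified by HTRF FRET; untreated cells as negative and cell-free wells as positive control.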

T1 sequence (P00533 25-1210 T790M/C797S/L858R): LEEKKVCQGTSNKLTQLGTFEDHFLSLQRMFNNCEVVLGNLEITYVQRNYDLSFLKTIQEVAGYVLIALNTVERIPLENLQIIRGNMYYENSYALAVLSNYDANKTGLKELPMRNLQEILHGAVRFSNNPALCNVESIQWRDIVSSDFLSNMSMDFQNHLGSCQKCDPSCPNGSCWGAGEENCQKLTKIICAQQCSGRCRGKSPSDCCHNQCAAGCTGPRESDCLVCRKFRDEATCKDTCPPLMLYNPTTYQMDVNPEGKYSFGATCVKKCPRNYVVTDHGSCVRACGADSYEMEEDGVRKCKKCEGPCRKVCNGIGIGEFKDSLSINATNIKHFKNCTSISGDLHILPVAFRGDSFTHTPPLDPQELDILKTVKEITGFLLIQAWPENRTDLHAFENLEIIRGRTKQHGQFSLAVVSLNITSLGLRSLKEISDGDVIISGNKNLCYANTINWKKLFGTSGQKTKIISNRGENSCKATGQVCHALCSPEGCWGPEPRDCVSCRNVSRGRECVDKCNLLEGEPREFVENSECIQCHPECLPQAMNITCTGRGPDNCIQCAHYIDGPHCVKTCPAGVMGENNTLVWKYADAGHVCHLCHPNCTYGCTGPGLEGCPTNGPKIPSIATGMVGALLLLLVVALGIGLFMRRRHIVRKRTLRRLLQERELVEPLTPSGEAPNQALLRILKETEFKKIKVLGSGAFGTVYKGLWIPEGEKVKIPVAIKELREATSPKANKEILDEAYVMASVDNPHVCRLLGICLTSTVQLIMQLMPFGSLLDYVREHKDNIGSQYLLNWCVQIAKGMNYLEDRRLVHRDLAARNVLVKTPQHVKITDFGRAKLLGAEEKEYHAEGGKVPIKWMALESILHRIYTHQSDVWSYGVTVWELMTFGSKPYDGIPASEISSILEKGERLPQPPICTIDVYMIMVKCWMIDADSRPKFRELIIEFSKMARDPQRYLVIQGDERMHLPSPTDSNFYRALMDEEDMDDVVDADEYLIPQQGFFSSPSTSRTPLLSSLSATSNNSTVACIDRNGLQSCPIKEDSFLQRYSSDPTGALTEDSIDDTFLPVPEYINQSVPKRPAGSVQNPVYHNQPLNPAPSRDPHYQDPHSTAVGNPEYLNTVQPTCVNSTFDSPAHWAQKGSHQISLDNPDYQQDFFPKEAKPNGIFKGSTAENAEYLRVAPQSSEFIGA

| Structure (SMILES) | DC50 [1] [nM] | DC50 [2] [nM] | DC50 [3] [nM] |
| --- | --- | --- | --- |
| O=C1CCC(Nc2ccc(C3CCN(CC(=O)N4CCC(NC(=O)c5ccc(C#Cc6cc(F)c7c(c6)C(=O)N(C(C(=O)Nc6nccs6)c6ncn8c6CCC8)C7)cn5)CC4)CC3)cc2)C(=O)N1 (racemic) [Compound 1, 5-[2-[7-Fluoro-3-oxo-2-[(1RS)-1-(6,7-dihydro-5H-pyrrolo[1,2-c]imidazol-1-yl)-2-oxo-2-(thiazol-2-ylamino)ethyl]isoindolin-5-yl]ethynyl]-N-[1-[2-[4-[4-[[(3RS)-2,6-dioxo-3-piperidyl]amino]phenyl]-1-piperidyl]acetyl]-4-piperidyl]pyridine-2-carboxamide] | 17 | 8 | 6 |
| O=C1CCC(Nc2ccc(C3CCN(CC(=O)N4CCN(c5ccc(-c6cc(F)c7c(c6)C(=O)N(C(C(=O)Nc6nccs6)c6ncn8c6CCC8)C7)cc5)CC4)CC3)cc2)C(=O)N1 (stereo not drawn) [Compound 5, 2-(6,7-dihydro-5H-pyrrolo[1,2-c]imidazol-1-yl)-2-[6-[4-[4-[2-[4-[4-[(2,6-dioxo-3-piperidyl)amino]phenyl]-1-piperidyl]acetyl]piperazin-1-yl]phenyl]-4-fluoro-1-oxo-isoindolin-2-yl]-N-thiazol-2-yl-acetamide] | 17 | 6 | 20 |
| O=C1CC[C@H](Nc2ccc(C3CCN(CC(=O)N4CCN(c5ccc(-c6cc(F)c7c(c6)C(=O)N(C(C(=O)Nc6nccs6)c6ncn8c6CCC8)C7)cc5)CC4)CC3)cc2)C(=O)N1 (stereo partly drawn) [Compound 6, 2-(6,7-dihydro-5H-pyrrolo[1,2-c]imidazol-1-yl)-2-[6-[4-[4-[2-[4-[4-[[(3S)-2,6-dioxo-3-piperidyl]amino]phenyl]-1-piperidyl]acetyl]piperazin-1-yl]phenyl]-4-fluoro-1-oxo-isoindolin-2-yl]-N-thiazol-2-yl-acetamide] | 8 | 7 | 22 |

Continued, values first:

| DC50 [1] [nM] | DC50 [2] [nM] | DC50 [3] [nM] | Structure (SMILES) |
| --- | --- | --- | --- |
| 18 | 6 | 13 | O=C1CCC(Nc2ccc(C3CCN(CC(=O)N4CCN(c5ccc(-c6cc(F)c7c(c6)C(=O)N(C(C(=O)Nc6nccs6)c6ncn8c6C[C@@H](F)C8)C7)cc5)CC4)CC3)cc2)C(=O)N1 (mixture of isomers) [Compound 43, (2RS)-2-[6-[4-[4-[2-[4-[4-[[(3RS)-2,6-Dioxo-3-piperidyl]amino]phenyl]-1-piperidyl]acetyl]piperazin-1-yl]phenyl]-4-fluoro-1-oxo-isoindolin-2-yl]-2-[(6R)-6-fluoro-6,7-dihydro-5H-pyrrolo[1,2-c]imidazol-1-yl]-N-thiazol-2-yl-acetamide] |
| 10 | 6 | 34 | O=C1CCC(Nc2ccc(C3CCN(CC(=O)N4CCN(c5ccc(-c6cc(F)c7c(c6)C(=O)N(C(C(=O)Nc6nccs6)c6ncn8c6CCC8)C7)cc5)CC4)CC3)c(C(F)F)c2)C(=O)N1 (stereo not drawn) [Compound 15, 2-[6-[4-[4-[2-[4-[2-(difluoromethyl)-4-[(2,6-dioxo-3-piperidyl)amino]phenyl]-1-piperidyl]acetyl]piperazin-1-yl]phenyl]-4-fluoro-1-oxo-isoindolin-2-yl]-2-(6,7-dihydro-5H-pyrrolo[1,2-c]imidazol-1-yl)-N-thiazol-2-yl-acetamide] |
| 22 | 6 | 29 | Cn1nc(N2CCC(=O)NC2=O)c2ccc(C3CCN(CC(=O)N4CCN(c5ccc(-c6cc(F)c7c(c6)C(=O)N(C(C(=O)Nc6nccs6)c6ncn8c6CCC8)C7)cc5)CC4)CC3)cc21 (stereo not drawn) [Compound 17, 2-(6,7-dihydro-5H-pyrrolo[1,2-c]imidazol-1-yl)-2-(6-(4-(4-(2-(4-(3-(2,4-dioxotetrahydropyrimidin-1(2H)-yl)-1-methyl-1H-indazol-6-yl)piperidin-1-yl)acetyl)piperazin-1-yl)phenyl)-4-fluoro-1-oxoisoindolin-2-yl)-N-(thiazol-2-yl)acetamide] |

— US12486290B2, “Isoindolinone and indazole compounds for the degradation of EGFR” (C4 THERAPEUTICS, INC., priority 2019, dated 2025)
